Measured values published in patent US20190031599A1, “INDANE DERIVATIVES AS MGLUR7 MODULATORS” (Takeda Pharmaceutical Company Limited, priority 2016, published 2019).
pEC50: −log10 of the molar value. Where a name gives a salt, the structure may show the parent alone.

molecular target: T1, human mGluR7 (Homo sapiens, UniProt Q14831); test: mGluR7 assay: CRE-directed luciferase reporter gene assay, reduction of forskolin stimulated cAMP production; assay type: cell-based; settings: stable CHO cell line expressing the CRE-luc reporter and human mGluR7 genes; decrease of forskolin stimulated luminescence; 10-point concentration-response, duplicate wells
T1 construct: expressed in transfected cells
T1 sequence (Q14831 35-915): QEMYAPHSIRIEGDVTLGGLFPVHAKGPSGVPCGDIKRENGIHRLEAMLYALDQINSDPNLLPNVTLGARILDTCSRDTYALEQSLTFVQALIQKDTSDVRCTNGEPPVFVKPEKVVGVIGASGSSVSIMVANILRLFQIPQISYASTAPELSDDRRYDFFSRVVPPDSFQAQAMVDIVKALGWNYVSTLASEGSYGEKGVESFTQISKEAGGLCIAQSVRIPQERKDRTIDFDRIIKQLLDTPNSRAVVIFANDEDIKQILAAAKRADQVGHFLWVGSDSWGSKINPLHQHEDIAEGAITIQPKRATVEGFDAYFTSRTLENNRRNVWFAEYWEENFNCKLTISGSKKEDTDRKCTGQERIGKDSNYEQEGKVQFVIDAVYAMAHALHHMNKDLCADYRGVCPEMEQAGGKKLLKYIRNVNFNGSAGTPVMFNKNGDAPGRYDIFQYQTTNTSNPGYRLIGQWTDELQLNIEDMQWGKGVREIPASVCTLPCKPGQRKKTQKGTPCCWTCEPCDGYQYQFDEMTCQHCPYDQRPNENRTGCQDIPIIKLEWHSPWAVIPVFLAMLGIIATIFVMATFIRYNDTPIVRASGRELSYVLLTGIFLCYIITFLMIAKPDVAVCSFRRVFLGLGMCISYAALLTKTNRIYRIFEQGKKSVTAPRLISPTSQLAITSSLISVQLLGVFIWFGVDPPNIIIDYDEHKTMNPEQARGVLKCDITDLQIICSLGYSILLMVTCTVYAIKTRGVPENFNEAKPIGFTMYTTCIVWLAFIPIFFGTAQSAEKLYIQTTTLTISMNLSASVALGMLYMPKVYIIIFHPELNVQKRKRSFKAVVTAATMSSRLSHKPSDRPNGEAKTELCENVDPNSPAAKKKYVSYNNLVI
Method: The ability of the test compounds to activate mGluR7 was determined by their ability to reduce forskolin stimulated cAMP production. Compounds were assessed in a CRE-directed luciferase reporter gene assay, using a stable CHO cell line expressing the CRE-luc reporter and human mGluR7 genes. In this cell line, production of cAMP stimulated the transcription of the luciferase gene and luciferase activity was then measured in a luminescent enzyme assay (Steady Glo assay; Promega E2550). Activation of mGluR7 decreased the forskolin stimulated luminescence signal.
The day prior to the assay, compounds were serially diluted in DMSO (100× final assay concentration (FAC)), in 384-well plates which were then stored in the dark at room temperature (RT) until use. Cells were seeded at 12.5 k/well in white, clear bottom 384-well plates (Corning 3707) and left for one hour at RT followed by an overnight incubation (37° C.). The following day, the DMSO compound plate was diluted 1:20 (5× FAC) in Opti-MEM I (Life Technologies 11058021). The growth media was removed from the cell plate and replaced with 15 μl Opti-MEM I, followed by a 5 μl addition from the 5× compound plate and a fifteen minute incubation (37° C.). Forskolin (Sigma F3917) was then added to the wells (5 μl of 2.5 μM) and the plate was incubated for five hours (37° C.). During this incubation, the Steady Glo Substrate reagent was warmed to 37° C. Aliquots (11 ml; stored at −20° C.) of this reagent were prepared by dissolving the contents of 1 vial of lyophilised substrate in 100 ml Steady-Glo buffer. A 25 μl addition of the substrate was made to all wells and the plate was incubated for thirty minutes at RT, on a plate shaker (300 rpm; in the dark). Luminescence was then measured using the EnVision Multilabel Reader (Perkin Elmer).
Compound activity was examined using a 10-point, half log concentration-response range and each concentration was tested in duplicate wells. Luminescence values were normalised to ‘maximum’ (forskolin alone) and ‘minimum’ (forskolin in the presence of tool mGluR7 agonist) controls.

pEC50	SMILES
8.70	CS(=O)(=O)[C@@H]1c2ccccc2C[C@H]1NC(=O)C(OCC1CC1)c1ccc(F)cc1 (single isomer, unassigned) [Example 161, 2-(cyclopropylmethoxy)-2-(4-fluorophenyl)-N-(trans)-(1-methanesulfonyl-2,3-dihydro-1H-inden-2-yl)acetamide]
8.70	CS(=O)(=O)[C@@H]1c2ccccc2C[C@H]1NC(=O)C(OCC1CC1)c1ccc(F)cc1 (single isomer, unassigned) [Example 162, 2-(cyclopropylmethoxy)-2-(4-fluorophenyl)-N-(trans)-(1-methanesulfonyl-2,3-dihydro-1H-inden-2-yl)acetamide]
6.25	C[C@@H](C(=O)NC1Cc2ccccc2C1O)c1ccccc1 (stereo in doubt) [Example 1, (2R)—N-((trans)-1-hydroxy-2,3-dihydro-1H-inden-2-yl)-2-phenylpropanamide]
5.99	COC1c2ccccc2CC1NC(=O)[C@@H](C)c1ccccc1 (stereo in doubt) [Example 10, (2S)—N-((cis)-1-methoxy-2,3-dihydro-1H-inden-2-yl)-2-phenylpropanamide]
7.72	CCOC1c2ccccc2CC1NC(=O)[C@@H](C)c1ccc(F)cc1 (stereo in doubt) [Example 31, (2S)—N-((trans)-1-ethoxy-2,3-dihydro-1H-inden-2-yl)-2-(4-fluorophenyl)propanamide]
6.20	COC1c2ccccc2CC1NC(=O)[C@@H](C)c1ccc(F)cc1 (stereo in doubt) [Example 39, (2S)-2-(4-fluorophenyl)-N-(cis)-(1-methoxy-2,3-dihydro-1H-inden-2-yl)propanamide]
7.25	C[C@H](C(=O)NC1Cc2ccccc2C1O)c1ccc(F)cc1 (stereo in doubt) [Example 61, (2S)-2-(4-fluorophenyl)-N-(trans)-(1-hydroxy-2,3-dihydro-1H-inden-2-yl)propanamide]
8.40	COC1c2ccccc2CC1NC(=O)[C@@H](NC(=O)c1cnn(C)c1)c1ccc(F)cc1 (stereo in doubt) [Example 65, (2S)-2-(4-fluorophenyl)-N-(trans)-(1-methoxy-2,3-dihydro-1H-inden-2-yl)-2-[(1-methyl-1H-pyrazol-4-yl)formamido]acetamide]
8.40	COC1c2ccccc2CC1NC(=O)[C@@H](NC(=O)C1CC1)c1ccc(F)cc1 (stereo in doubt) [Example 66, (2S)-2-(cyclopropylformamido)-2-(4-fluorophenyl)-N-(trans)-(1-methoxy-2,3-dihydro-1H-inden-2-yl)acetamide]
8.70	CC1c2ccccc2CC1NC(=O)[C@@H](NC(=O)OC(C)(C)C)c1ccc(F)cc1 (stereo in doubt) [Example 71, tert-butyl N—[(S)-(4-fluorophenyl)[(trans)-(1-methyl-2,3-dihydro-1H-inden-2-yl)carbamoyl]methyl]carbamate]
7.96	COC1c2ccccc2CC1NC(=O)[C@@H](NS(C)(=O)=O)c1ccc(F)cc1 (stereo in doubt) [Example 72, (2S)-2-(4-fluorophenyl)-2-methanesulphonamido-N-(trans)-(1-methoxy-2,3-dihydro-1H-inden-2-yl)acetamide]
7.59	CC1c2ccccc2CC1NC(=O)[C@@H](NS(C)(=O)=O)c1ccc(F)cc1 (stereo in doubt) [Example 85, (2S)-2-(4-fluorophenyl)-2-methanesulfonamido-N-((trans)-1-methyl-2,3-dihydro-1H-inden-2-yl)acetamide]
6.65	CO[C@H](C(=O)NC1Cc2ccccc2C1S(C)(=O)=O)c1ccccc1 (stereo in doubt) [Example 149, (2S)—N-(trans)-(1-methanesulfonyl-2,3-dihydro-1H-inden-2-yl)-2-methoxy-2-phenylacetamide]
6.81	CCS(=O)(=O)C1c2ccccc2CC1NC(=O)[C@@H](OC)c1ccccc1 (stereo in doubt) [Example 150, (2S)—N-(trans)-(1-ethanesulfonyl-2,3-dihydro-1H-inden-2-yl)-2-methoxy-2-phenylacetamide]
6.92	C[C@H](C(=O)N[C@H]1Cc2ccccc2[C@@H]1N)c1ccccc1 [Example 11, (2S)—N-[(1S,2S)-1-amino-2,3-dihydro-1H-inden-2-yl]-2-phenylpropanamide hydrochloride]
6.54	C[C@H](C(=O)N[C@@H]1Cc2ccccc2[C@H]1N)c1ccccc1 [Example 12, (2S)—N-[(1R,2R)-1-amino-2,3-dihydro-1H-inden-2-yl]-2-phenylpropanamide]

pEC50	SMILES
5.92	CC(=O)N[C@H]1c2ccccc2C[C@@H]1NC(=O)[C@@H](C)c1ccccc1 [Example 13, (2S)—N-[(1S,2S)-1-acetamido-2,3-dihydro-1H-inden-2-yl]-2-phenylpropanamide]
6.86	CCC(C(=O)N[C@H]1Cc2ccccc2[C@@H]1N)c1ccc(F)cc1F (stereo partly drawn) [Example 14, N-[(1S,2S)-1-amino-2,3-dihydro-1H-inden-2-yl]-2-(2,4-difluorophenyl)butanamide hydrochloride]
6.71	CCC(C(=O)N[C@@H]1Cc2ccccc2[C@H]1N)c1ccc(F)cc1F (stereo partly drawn) [Example 17, N-[(1R,2R)-1-amino-2,3-dihydro-1H-inden-2-yl]-2-(2,4-difluorophenyl)butanamide hydrochloride]
6.82	C[C@H](C(=O)N[C@@H]1Cc2ccccc2[C@H]1NC(=O)OC(C)(C)C)c1ccccc1 [Example 18, tert-butyl N-[(1R,2R)-2-[(2S)-2-phenylpropanamido]-2,3-dihydro-1H-inden-1-yl]carbamate]
6.01	CO[C@H](C(=O)N[C@H]1Cc2ccccc2[C@@H]1N)c1ccccc1 [Example 19, (2S)—N-[(1S,2S)-1-amino-2,3-dihydro-1H-inden-2-yl]-2-methoxy-2-phenylacetamide hydrochloride]
6.98	CC(C)C(C(=O)N[C@H]1Cc2ccccc2[C@@H]1N)c1ccc(Cl)cc1 (stereo partly drawn) [Example 20, N-[(1S,2S)-1-amino-2,3-dihydro-1H-inden-2-yl]-2-(4-chlorophenyl)-3-methylbutanamide hydrochloride]
7.55	C[C@H](C(=O)N[C@H]1Cc2ccccc2[C@@H]1NC(=O)OC(C)(C)C)c1ccc(F)cc1 [Example 21, tert-butyl N-[(1S,2S)-2-[(2S)-2-(4-fluorophenyl)propanamido]-2,3-dihydro-1H-inden-1-yl]carbamate]
7.15	CN[C@H]1c2ccccc2C[C@@H]1NC(=O)[C@@H](C)c1ccccc1 [Example 22, (2S)—N-[(1S,2S)-1-(methylamino)-2,3-dihydro-1H-inden-2-yl]-2-phenylpropanamide]
7.74	C[C@H](C(=O)N[C@H]1Cc2ccccc2[C@@H]1NC(=O)OC(C)(C)C)c1ccc(F)cc1F [Example 23, tert-butyl N-[(1S,2S)-2-[(2S)-2-(2,4-difluorophenyl)propanamido]-2,3-dihydro-1H-inden-1-yl]carbamate]
7.18	C[C@H](C(=O)N[C@H]1Cc2ccccc2[C@@H]1N)c1ccc(F)cc1 [Example 24, (2S)—N-[(1S,2S)-1-amino-2,3-dihydro-1H-inden-2-yl]-2-(4-fluorophenyl)propanamide]
7.02	C[C@H](C(=O)N[C@H]1Cc2ccccc2[C@@H]1N)c1ccc(F)cc1F [Example 34, (2S)—N-[(1S,2S)-1-amino-2,3-dihydro-1H-inden-2-yl]-2-(2,4-difluorophenyl)propanamide]
6.63	C[C@H](C(=O)N[C@@H]1Cc2ccccc2[C@H]1N)c1ccc(F)cc1F [Example 35, (2S)—N-[(1R,2R)-1-amino-2,3-dihydro-1H-inden-2-yl]-2-(2,4-difluorophenyl)propanamide]
7.64	C[C@H](C(=O)N[C@H]1Cc2ccccc2[C@@H]1NCC1CCOCC1)c1ccc(F)cc1F [Example 40, (2S)-2-(2,4-difluorophenyl)-N-[(1S,2S)-1-{[(oxan-4-yl)methyl]amino}-2,3-dihydro-1H-inden-2-yl]propanamide]
6.67	CCC(C(=O)N[C@@H]1Cc2ccccc2[C@H]1NC(=O)OC(C)(C)C)c1ccc(F)cc1F (stereo partly drawn) [Example 41, tert-butyl N-[(1R,2R)-2-[2-(2,4-difluorophenyl)butanamido]-2,3-dihydro-1H-inden-1-yl]carbamate]
7.89	CC[C@H](C(=O)N[C@H]1Cc2ccccc2[C@@H]1NC(=O)OC(C)(C)C)c1ccc(F)cc1 [Example 42, tert-butyl N-[(1S,2S)-2-[(2S)-2-(4-fluorophenyl)butanamido]-2,3-dihydro-1H-inden-1-yl]carbamate]
6.89	CC[C@H](C(=O)N[C@@H]1Cc2ccccc2[C@H]1NC(=O)OC(C)(C)C)c1ccc(F)cc1 [Example 43, tert-butyl N-[(1R,2R)-2-[(2S)-2-(4-fluorophenyl)butanamido]-2,3-dihydro-1H-inden-1-yl]carbamate]
